Experiments:
[1] = tested on: serotonin (2a, 2b and 2c receptors); assay: Serotonin receptor inositol phosphate 1 (IP1) assay (Multispan); assay type: cell-based, Human; conditions: percentage relative response vs 1 μM serotonin; FIG. 2
Protocol: Compounds 005, 008 and 018 were assayed using a serotonin (2a, 2b and 2c receptors) inositol phosphate 1 (IP1) assay, provided by Multispan. The reference used was 1 μM serotonin to calculate the percentage relative response. The results can be seen in FIG. 2.
IP-One Gq kit—cisbio—cat. No. 62IPAPEB
(§1) MULTISCREEN™ CHO-K1 Cell Line Stably Expressing Human 5-HT2A Receptor, Catalog DC1324-1
MULTISCREEN™ CHO-K1 Cell Line Stably Expressing Human 5-HT2B Receptor, Catalog DC1325-1
(§2) MULTISCREEN™ CHO-K1 Cell Line Stably Expressing Human 5-HT2C Receptor, Catalog DC1326-1

HTR2A = molecular target: T1, HTR2A (Homo sapiens, UniProt P28223); assay: B-arrestin assay (DiscoverX PathHunter), 2a receptor; assay type: cell-based; conditions: percentage relative response vs 10 μM serotonin; FIG. 4
T1 construct: host or cells: U2OS
T1 sequence (P28223 whole entry): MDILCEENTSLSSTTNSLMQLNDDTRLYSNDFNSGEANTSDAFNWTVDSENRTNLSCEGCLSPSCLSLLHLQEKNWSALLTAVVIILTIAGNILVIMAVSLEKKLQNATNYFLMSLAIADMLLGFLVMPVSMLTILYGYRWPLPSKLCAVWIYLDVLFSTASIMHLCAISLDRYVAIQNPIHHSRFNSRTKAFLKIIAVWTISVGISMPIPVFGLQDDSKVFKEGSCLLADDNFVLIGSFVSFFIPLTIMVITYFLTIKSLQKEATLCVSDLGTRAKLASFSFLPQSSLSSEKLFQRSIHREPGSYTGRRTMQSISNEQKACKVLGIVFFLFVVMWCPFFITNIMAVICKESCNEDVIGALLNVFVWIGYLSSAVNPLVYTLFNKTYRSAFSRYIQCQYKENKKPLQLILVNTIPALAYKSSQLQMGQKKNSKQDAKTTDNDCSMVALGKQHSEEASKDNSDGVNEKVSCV
Protocol: (§3) Compounds 005, 008 and 018 were assayed using a serotonin (1a, 1b, 2a and 2c receptors) B-arrestin assay, provided by DiscoverX. The reference used was 10 μM serotonin to calculate the percentage relative response. The results can be seen in FIG. 4. […] The compounds were also assayed in a serotonin 2b receptor B-arrestin assay, the results of which can be seen in FIG. 5.
HTR2A PathHunter® eXpress HTR2A U2OS β-Arrestin GPCR Assay 93-0401E3CP19M 200 dp (2×96-well)

5-HT2C Receptor = molecular target: T2, 5-HT2C Receptor (Homo sapiens, UniProt P28335); assay: Serotonin calcium (Ca2+) assay, 2c receptor; assay type: cell-based; conditions: percentage relative response vs 10 μM serotonin, RLU; FIG. 3
T2 construct: host or cells: CHO-K1
T2 sequence (P28335 33-458): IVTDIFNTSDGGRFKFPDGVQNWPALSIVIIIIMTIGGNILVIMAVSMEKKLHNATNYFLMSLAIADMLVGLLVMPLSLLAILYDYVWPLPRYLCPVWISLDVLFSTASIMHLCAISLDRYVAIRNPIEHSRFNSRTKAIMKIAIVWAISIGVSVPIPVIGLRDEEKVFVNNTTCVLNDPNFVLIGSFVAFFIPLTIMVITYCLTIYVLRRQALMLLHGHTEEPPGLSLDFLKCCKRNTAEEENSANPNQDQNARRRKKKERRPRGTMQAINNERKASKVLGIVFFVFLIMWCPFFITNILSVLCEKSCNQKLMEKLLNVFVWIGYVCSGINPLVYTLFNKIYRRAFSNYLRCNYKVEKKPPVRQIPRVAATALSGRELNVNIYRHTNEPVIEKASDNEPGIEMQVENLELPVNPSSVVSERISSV
Protocol: Compounds 005, 008 and 018 were assayed using a serotonin (2a, 2b and 2c receptors) calcium (Ca^2+) assay, provided by Multispan. The reference used was 10 μM serotonin to calculate the percentage relative response in relative light units (RLU). The results can be seen in FIG. 3. Some activity for compound 005 in the 2c receptor assay was detected.
FLIPR calcium 6 assay explorer kit—VWR—cat. No. MLDVR8190
as §2

[2] = tested on: serotonin (1a, 1b, 2a, 2c and 7 receptors); assay: Serotonin receptor cAMP assay (Multispan, HTRF); assay type: cell-based, Human; conditions: percentage relative response vs 10 μM forskolin; serotonin control; FIG. 1
Protocol: Compounds 005, 008 and 018 were assayed using a serotonin (1a, 1b, 2a, 2c and 7 receptors) cAMP assay, provided by Multispan. The reference used was 10 μM forskolin (a cAMP activator) to calculate the percentage relative response, serotonin was used as the control. The results can be seen in FIG. 1.
cAMP Gs dynamic kit—cisbio—cat. No. 62AM4PEC
MULTISCREEN™ HEK293T Cell Line Stably Expressing Human 5-HT1A Receptor, Catalog DC1319a
MULTISCREEN™ HEK293T Cell Line Stably Expressing Human 5-HT1B Receptor, Catalog DC1320a
as §1, §2
MULTISCREEN™ HEK293T Cell Line Stably Expressing Human 5-HT7 Receptor, Catalog DC1334

HTR2C = molecular target: T3, HTR2C (Homo sapiens, UniProt P28335); assay: B-arrestin assay (DiscoverX PathHunter), 2c receptor; assay type: cell-based; conditions: percentage relative response vs 10 μM serotonin; FIG. 4
T3 construct: host or cells: U2OS
T3 sequence (P28335 33-458): T2 sequence (P28335 33-458)
Protocol: as §3
HTR2C PathHunter® eXpress HTR2C U2OS β-Arrestin GPCR Assay 93-0289E3CP3M 200 dp (2×96-well)

Row | Compound | IP1 assay result (response curves) [1] | B-arrestin assay activity, 2a receptor (HTR2A) | Ca2+ assay activity, 2c receptor (5-HT2C Receptor) | cAMP assay result (activation of the cAMP pathway) [2] | B-arrestin assay activity, 2c receptor (HTR2C)
1 | CCN(C)CCc1c[nH]c2cccc(Oc3ccccn3)c12 [Compound 008, (S)-ethyl(methyl){2-[4-(pyridin-2-yloxy)-1H-indol-3-ylethyl}-azanium] | incomplete response curves in this assay, showing agonistic activity | Some activity |  |  | 
2 | CCN(C)CCc1c[nH]c2cccc(OC(=O)Nc3ccccc3)c12 [Compound 005, (S)-ethyl(methyl)(2-{4-[(phenylcarbam-oyl)oxy]-1H-indol-3-yl}ethyl)azanium] | incomplete response curves in this assay, showing agonistic activity | Some activity | Some activity | may have some activation of the cAMP pathway | appeared to have activity
3 | CC(C)N(C)[C@H](C)Cc1c[nH]c2ccccc12 [Compound 018, (R)-[(2R)-1-(1H-indol-3-yl)propan-2-yl](methyl)(propan-2-yl)azanium] | incomplete response curves in this assay, showing agonistic activity | Some activity |  |  | 

Reference: patent US12534441B2, “Tryptamine analogues” (priority 2021, dated 2026)
